This experiment relates to 349418-098-R-PDC complex spheroid viability. Description: Anticancer human tumor 349418-098-R-PDC patient-derived lung adenocarcinoma cell line growth inhibition [RAS]. The settings on record: for viability, T/C: stronger effect = lower value. Put shortly: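 Agents were tested in combination matrices in half-log decrements from a top concentration at or near clinical Cmax (10 microM if undetermined). Targets were multi-cell spheroids of tumour lines plus HUVEC and MSC stromal cells.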

Setting [1] is: curve of first compound, second compound 0.000949 µM.
Setting [2] is: curve of first compound, second compound 0.003 µM.
[3] abbreviates: curve of first compound, second compound 0.00949 µM.
The mark [4] stands for this setting: curve of first compound, second compound 0.03 µM.
Where [5] appears, read: curve of first compound, second compound 0.0949 µM.
[6] abbreviates: curve of first compound, second compound 0.3 µM.

Structures are written as SMILES.
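Further: spheroids exposed to compound for seven days before viability readout.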

On to `CC(=O)OC12COC1CC(O)C1(C)C(=O)C(O)C3=C(C)C(OC(=O)C(O)C(NC(=O)OC(C)(C)C)c4ccccc4)CC(O)(C(OC(=O)c4ccccc4)C21)C3(C)C` (configuration not stated) + CCn1c(-c2cccnc2C(C)OC)c2c3cc(ccc31)N1CCOC(CC(NC(=O)C(C(C)C)N(C)C(=O)C3(F)CCN(C(=O)C#CC(C)(C)N(C)C)CC3)C(=O)N3CCCC(N3)C(=O)OCC(C)(C)C2)C1, for which the IC50 was under 31.6 nM under setting [1]; under 31.6 nM under setting [2]; under 31.6 nM under setting [3]; under 31.6 nM under setting [4]; under 31.6 nM under setting [5]; under 31.6 nM under setting [6]. Also, the viability, T/C (second compound 0.000949 µM, first compound 0.0316 µM) was 13.4%; the viability, T/C (second compound 0.000949 µM, first compound 0.1 µM) is 13%; the viability, T/C (second compound 0.000949 µM, first compound 0.316 µM) is 15.4%; the viability, T/C (second compound 0.000949 µM, first compound 1 µM) was 16.4%; the viability, T/C (second compound 0.000949 µM, first compound 3.16 µM) is 15.6%; the viability, T/C (second compound 0.000949 µM, first compound 10 µM) is 17.3%. The viability, T/C (second compound 0.003 µM, first compound 0.0316 µM) is 13.8%; the viability, T/C (second compound 0.003 µM, first compound 0.1 µM) was 13.9%; the viability, T/C (second compound 0.003 µM, first compound 0.316 µM) was 10.9%; the viability, T/C (second compound 0.003 µM, first compound 1 µM) was 13.8%; the viability, T/C (second compound 0.003 µM, first compound 3.16 µM) is 16.8%; the viability, T/C (second compound 0.003 µM, first compound 10 µM) was 16.9%. The viability, T/C by setting is: (second compound 0.00949 µM, first compound 0.0316 µM) 13.2%; (second compound 0.00949 µM, first compound 0.1 µM) 13.6%; (second compound 0.00949 µM, first compound 0.316 µM) 10.2%; (second compound 0.00949 µM, first compound 1 µM) 13.5%; (second compound 0.00949 µM, first compound 3.16 µM) 17.4%; (second compound 0.00949 µM, first compound 10 µM) 15.9%. For the same compound, the viability, T/C is, setting by setting: (second compound 0.03 µM, first compound 0.0316 µM) 12.6%; (second compound 0.03 µM, first compound 0.1 µM) 13.3%; (second compound 0.03 µM, first compound 0.316 µM) 16.2%; (second compound 0.03 µM, first compound 1 µM) 16.2%; (second compound 0.03 µM, first compound 3.16 µM) 17.4%; (second compound 0.03 µM, first compound 10 µM) 12.6%. Besides, the viability, T/C (second compound 0.0949 µM, first compound 0.0316 µM) was 12.2%; the viability, T/C (second compound 0.0949 µM, first compound 0.1 µM) was 13.3%; the viability, T/C (second compound 0.0949 µM, first compound 0.316 µM) was 15.7%; the viability, T/C (second compound 0.0949 µM, first compound 1 µM) is 15.9%; the viability, T/C (second compound 0.0949 µM, first compound 3.16 µM) was 16.9%; the viability, T/C (second compound 0.0949 µM, first compound 10 µM) is 16.8%. Also, the viability, T/C was 13% (second compound 0.3 µM, first compound 0.0316 µM); 13.2% (second compound 0.3 µM, first compound 0.1 µM); 14.7% (second compound 0.3 µM, first compound 0.316 µM); 15% (second compound 0.3 µM, first compound 1 µM); 19.1% (second compound 0.3 µM, first compound 3.16 µM); 21.1% (second compound 0.3 µM, first compound 10 µM).

`CC1(C)CCC(Nc2ncc(C(F)(F)F)c(-c3c[nH]c4c(P(C)(C)=O)c(C#N)ccc34)n2)CN1` (configuration not stated) + CCn1c(-c2cccnc2C(C)OC)c2c3cc(ccc31)N1CCOC(CC(NC(=O)C(C(C)C)N(C)C(=O)C3(F)CCN(C(=O)C#CC(C)(C)N(C)C)CC3)C(=O)N3CCCC(N3)C(=O)OCC(C)(C)C2)C1: the IC50 runs as follows: under setting [1], under 0.949 nM; under setting [2], 1.31 nM; under setting [3], under 0.949 nM; under setting [4], 1.25 nM; under setting [5], 1.02 nM; under setting [6], 1.15 nM. Besides, the viability, T/C runs as follows: (second compound 0.000949 µM, first compound 0.000949 µM) 36.9%; (second compound 0.000949 µM, first compound 0.003 µM) 19.5%; (second compound 0.000949 µM, first compound 0.00949 µM) 10.7%; (second compound 0.000949 µM, first compound 0.03 µM) 8.99%; (second compound 0.000949 µM, first compound 0.0949 µM) 8.61%; (second compound 0.000949 µM, first compound 0.3 µM) 7.56%. Also, the viability, T/C by setting is: (second compound 0.003 µM, first compound 0.000949 µM) 60.5%; (second compound 0.003 µM, first compound 0.003 µM) 22.8%; (second compound 0.003 µM, first compound 0.00949 µM) 14.4%; (second compound 0.003 µM, first compound 0.03 µM) 9.79%; (second compound 0.003 µM, first compound 0.0949 µM) 9.1%; (second compound 0.003 µM, first compound 0.3 µM) 8.13%. Also, the viability, T/C (second compound 0.00949 µM, first compound 0.000949 µM) was 49.8%; the viability, T/C (second compound 0.00949 µM, first compound 0.003 µM) is 19.5%; the viability, T/C (second compound 0.00949 µM, first compound 0.00949 µM) was 12.2%; the viability, T/C (second compound 0.00949 µM, first compound 0.03 µM) is 9.39%; the viability, T/C (second compound 0.00949 µM, first compound 0.0949 µM) is 9.09%; the viability, T/C (second compound 0.00949 µM, first compound 0.3 µM) was 6.88%. Also, the viability, T/C is 59.3% (second compound 0.03 µM, first compound 0.000949 µM); 21.2% (second compound 0.03 µM, first compound 0.003 µM); 12.3% (second compound 0.03 µM, first compound 0.00949 µM); 8.37% (second compound 0.03 µM, first compound 0.03 µM); 9.21% (second compound 0.03 µM, first compound 0.0949 µM); 7.47% (second compound 0.03 µM, first compound 0.3 µM). Also, the viability, T/C (second compound 0.0949 µM, first compound 0.000949 µM) was 52.1%; the viability, T/C (second compound 0.0949 µM, first compound 0.003 µM) is 22%; the viability, T/C (second compound 0.0949 µM, first compound 0.00949 µM) was 9.91%; the viability, T/C (second compound 0.0949 µM, first compound 0.03 µM) is 7.89%; the viability, T/C (second compound 0.0949 µM, first compound 0.0949 µM) is 8.73%; the viability, T/C (second compound 0.0949 µM, first compound 0.3 µM) was 7.62%. The viability, T/C reads like this: (second compound 0.3 µM, first compound 0.000949 µM) 55.7%; (second compound 0.3 µM, first compound 0.003 µM) 22.5%; (second compound 0.3 µM, first compound 0.00949 µM) 9.85%; (second compound 0.3 µM, first compound 0.03 µM) 9.41%; (second compound 0.3 µM, first compound 0.0949 µM) 8.24%; (second compound 0.3 µM, first compound 0.3 µM) 6.74%.

`CC(C)NCC(C(=O)N1CCN(c2ncnc3c2C(C)CC3O)CC1)c1ccc(Cl)cc1` (configuration not stated): the viability, T/C reads like this: (compound 0.1 µM) 81.7% [middle of 4 runs]; (compound 0.316 µM) 62.2% [middle of 4 runs]; (compound 1 µM) 37.9% [middle of 4 runs]; (compound 3.16 µM) 18% [middle of 4 runs]; (compound 10 µM) 12.6% [middle of 4 runs]. For the same compound, where the note is “curve of compound”, the IC50 is 476 nM [middle of 4 runs].

`CCn1c(-c2cccnc2C(C)OC)c2c3cc(ccc31)N1CCOC(CC(NC(=O)C(C(C)C)N(C)C(=O)C3(F)CCN(C(=O)C#CC(C)(C)N(C)C)CC3)C(=O)N3CCCC(N3)C(=O)OCC(C)(C)C2)C1` (configuration not stated): where the note is “compound 0.003 µM”, the viability, T/C was 111% [middle of 8 runs]. Also, for the setting “compound alone, run of 05/20/2024”, the IC50 is over 300 nM.

Source of the values: PubChem BioAssay AID2060904 (Molecular Pharmacology Branch, DTP, NCI, 2025).
